One data set has as its target T1, PDE10A (Homo sapiens, UniProt Q9Y233).
T1 construct: made in house; host or cells: SF21 insect cells (baculovirus)
The experiment in a line: Inhibition of recombinant PDE10A (baculovirus/SF21 system), [3H]-cAMP SPA. The class given is biochemical.

The target of the next data set is T2, PDE2A (Homo sapiens, UniProt O00408).
T2 construct: made in house; host or cells: SF21 insect cells (baculovirus)
The experiment in a line: Inhibition of recombinant PDE2A (expressed in baculovirus/SF21-cells), [3H]-cAMP SPA. It counts as biochemical. In a few lines:
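Membrane fraction of baculovirus/SF21-expressed PDE2A was incubated 30 min at 37° C in Tris-HCl/MgCl2 pH 7.4 with 0.5 μM [3H]-cAMP and 1000 nM cGMP as activator. Product was detected by SPA scintillation. IC50 used a Hill-plot 2-parameter model.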

The mark [1] stands for this setting: recombinant PDE10A1, cytosolic, 0.1 μM [3H]-cAMP, 37° C., 30 minutes, read-out: PDE10A IC50.

Where two headings read alike, the source gives them in different places.

T1 sequence (Q9Y233 1-779 isoform Q9Y233-1): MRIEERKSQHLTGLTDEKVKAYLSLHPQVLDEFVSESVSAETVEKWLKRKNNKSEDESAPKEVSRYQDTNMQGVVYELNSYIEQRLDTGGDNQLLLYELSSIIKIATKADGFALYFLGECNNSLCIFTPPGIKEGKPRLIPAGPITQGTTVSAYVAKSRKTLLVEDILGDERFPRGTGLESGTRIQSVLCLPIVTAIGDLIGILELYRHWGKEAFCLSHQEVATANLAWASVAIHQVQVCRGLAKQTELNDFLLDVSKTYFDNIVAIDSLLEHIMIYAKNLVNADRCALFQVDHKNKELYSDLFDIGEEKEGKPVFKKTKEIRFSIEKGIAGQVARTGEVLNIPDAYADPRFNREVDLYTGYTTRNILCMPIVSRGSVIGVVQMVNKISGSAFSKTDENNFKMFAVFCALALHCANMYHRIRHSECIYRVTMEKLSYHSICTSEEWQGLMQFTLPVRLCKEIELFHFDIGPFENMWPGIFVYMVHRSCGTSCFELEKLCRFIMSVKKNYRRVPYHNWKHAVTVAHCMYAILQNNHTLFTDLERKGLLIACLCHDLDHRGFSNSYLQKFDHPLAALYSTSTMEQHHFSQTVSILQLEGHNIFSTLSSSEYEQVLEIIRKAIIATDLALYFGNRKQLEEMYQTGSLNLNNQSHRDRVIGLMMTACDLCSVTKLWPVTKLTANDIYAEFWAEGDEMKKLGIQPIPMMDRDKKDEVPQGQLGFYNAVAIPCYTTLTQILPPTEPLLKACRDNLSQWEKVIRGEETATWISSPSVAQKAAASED
T2 sequence (O00408 whole entry): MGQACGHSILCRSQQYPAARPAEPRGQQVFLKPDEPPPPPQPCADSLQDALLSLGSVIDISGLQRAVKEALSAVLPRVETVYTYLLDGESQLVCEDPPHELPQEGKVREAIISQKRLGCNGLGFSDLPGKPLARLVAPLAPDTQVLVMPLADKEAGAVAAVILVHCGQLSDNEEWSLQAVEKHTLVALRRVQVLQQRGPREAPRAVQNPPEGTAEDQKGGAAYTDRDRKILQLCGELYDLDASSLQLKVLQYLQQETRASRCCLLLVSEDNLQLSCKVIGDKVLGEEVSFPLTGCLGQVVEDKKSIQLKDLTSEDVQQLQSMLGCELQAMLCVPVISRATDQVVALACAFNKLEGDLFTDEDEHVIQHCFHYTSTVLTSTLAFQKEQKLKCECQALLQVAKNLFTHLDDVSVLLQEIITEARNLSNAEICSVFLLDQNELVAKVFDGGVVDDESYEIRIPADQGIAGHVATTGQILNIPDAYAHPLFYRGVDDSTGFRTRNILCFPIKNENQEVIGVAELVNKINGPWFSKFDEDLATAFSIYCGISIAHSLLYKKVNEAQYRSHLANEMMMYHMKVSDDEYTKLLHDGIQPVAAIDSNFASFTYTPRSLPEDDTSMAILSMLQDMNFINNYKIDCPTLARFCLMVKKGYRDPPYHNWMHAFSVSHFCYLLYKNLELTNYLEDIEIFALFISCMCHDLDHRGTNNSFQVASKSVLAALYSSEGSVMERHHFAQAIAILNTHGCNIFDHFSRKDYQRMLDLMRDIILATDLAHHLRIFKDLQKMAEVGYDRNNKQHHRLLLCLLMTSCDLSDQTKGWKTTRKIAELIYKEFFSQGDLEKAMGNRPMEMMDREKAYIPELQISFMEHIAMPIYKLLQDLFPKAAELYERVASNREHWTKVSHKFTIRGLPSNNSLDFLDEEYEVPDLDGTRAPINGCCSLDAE

On to `Cc1nc(-c2cc(Cl)ccc2Cl)n2c1nnc1ccc(F)cc12` [Example 8, 1-(2,5-dichlorophenyl)-8-fluoro-3-methylbenzo[e]imidazo[5,1-c][1,2,4]triazine], for which the melting point (commonly the temperature, or range, at which the solid turns liquid) was 146 to 149 °C. Besides, the IC50 (commonly the concentration at which inhibition is half-maximal) at PDE10A (setting [1]) came to 176 nM. Moreover, the IC50 at PDE2A stood at 36.5 nM.

Consider `CCC(C)c1nc(C)c2nnc3ccc(F)cc3n12` (stereo not drawn) [Example 10, 1-sec-butyl-8-fluoro-3-methylbenzo[e]imidazo[5,1-c][1,2,4]triazine], for which the melting point was in the range of 169 to 171.5 °C. For the same compound, at PDE10A, the IC50 amounted to 410 nM. The IC50 at PDE2A is 1530 nM.

Regarding `Cc1ncn2c1nnc1ccc(F)cc12` [Example 11, 8-fluoro-3-methylbenzo[e]imidazo[5,1-c][1,2,4]triazine], the melting point is 230 °C. Further, the concentration for half-maximal inhibition (IC50) at PDE10A (setting [1]) was > 10000 nM. The IC50 on PDE2A was > 10000 nM.

`Cc1ncccc1-c1nc(C)c2nnc3ccc(F)cc3n12` [Example 12, 8-fluoro-3-methyl-1-(2-methylpyridin-3-yl)benzo[e]imidazo[5,1-c][1,2,4]triazine]: the melting point lay within 207 to 210 °C. Moreover, on PDE10A (setting [1]), the IC50 stood at 780 nM. Further, the IC50 at PDE2A came to 187 nM.

`Cc1nc(-c2ccccc2Cl)n2c1nnc1ccc(F)cc12` [Example 13, 1-(2-chlorophenyl)-8-fluoro-3-methylbenzo[e]imidazo[5,1-c][1,2,4]triazine] displayed a melting point of 189 to 192 °C. For the same compound, the IC50 at PDE10A (setting [1]) stood at 86 nM. The half-inhibitory concentration (IC50) at PDE2A was 32.6 nM.

`Cc1nc(-c2cccc(Cl)c2Cl)n2c1nnc1ccc(F)cc12` [Example 14, 1-(2,3-dichlorophenyl)-8-fluoro-3-methylbenzo[e]imidazo[5,1-c][1,2,4]triazine]: the melting point was in the range of 193 to 196 °C. Further, on PDE10A (setting [1]), the half-maximal inhibitory concentration (IC50) stood at 308 nM. For the same compound, the IC50 at PDE2A amounted to 371 nM.

With `Cc1nc(-c2ccnn2C)n2c1nnc1ccc(F)cc12` [Example 15, 8-fluoro-3-methyl-1-(1-methyl-1H-pyrazol-5-yl)benzo[e]imidazo[5,1-c][1,2,4]triazine], the melting point lay in the range of 217 to 220 °C. Moreover, at PDE10A (setting [1]), the half-inhibitory concentration (IC50) was > 5000 nM. Besides, the 50% inhibitory concentration (IC50) on PDE2A is > 1000 nM.

`COc1ccccc1-c1nc(C)c2nnc3ccc(F)cc3n12` [Example 16, 8-fluoro-1-(2-methoxyphenyl)-3-methylbenzo[e]imidazo[5,1-c][1,2,4]triazine] showed a melting point of 196 to 198 °C. Also, the half-maximal inhibitory concentration (IC50) at PDE10A (setting [1]) came out at 456 nM. Also, the IC50 at PDE2A came out at 351 nM.

For the compound `Cc1ccccc1-c1nc(C)c2nnc3ccc(F)cc3n12` [Example 17, 8-fluoro-3-methyl-1-o-tolylbenzo[e]imidazo[5,1-c][1,2,4]triazine], the melting point lay in the range of 192 to 195 °C. On PDE10A (setting [1]), the IC50 is 196 nM. The 50% inhibitory concentration (IC50) at PDE2A came to 122 nM.

Consider `COc1ccc(Cl)c(-c2nc(C)c3nnc4ccc(F)cc4n23)c1` [Example 18, 1-(2-chloro-5-methoxyphenyl)-8-fluoro-3-methylbenzo[e]imidazo[5,1-c][1,2,4]triazine], for which the melting point lay in the range of 190 to 192 °C. For the same compound, the IC50 at PDE10A (setting [1]) was 183 nM. For the same compound, the IC50 at PDE2A was 20.1 nM.

Consider `Cc1nc(-c2cnccc2Cl)n2c1nnc1ccc(F)cc12` [Example 19, 1-(4-chloropyridin-3-yl)-8-fluoro-3-methylbenzo[e]imidazo[5,1-c][1,2,4]triazine], for which the melting point is 141 to 144 °C. At PDE10A (setting [1]), the concentration for half-maximal inhibition (IC50) stood at 2030 nM. Further, the IC50 on PDE2A stood at 1360 nM.

Compound `Cc1nc(-c2cc(OC(C)C)ccc2F)n2c1nnc1ccc(F)cc12` [Example 20, 8-fluoro-1-(2-fluoro-5-isopropoxyphenyl)-3-methylbenzo[e]imidazo[5,1-c][1,2,4]triazine] displayed a melting point of 148 to 150.5 °C. In addition, the half-maximal inhibitory concentration (IC50) on PDE10A (setting [1]) came out at 2290 nM. In addition, the 50% inhibitory concentration (IC50) on PDE2A was 473 nM.

`Cc1nc(-c2cc(C(F)(F)F)ccc2F)n2c1nnc1ccc(F)cc12` [Example 21, 8-fluoro-1-(2-fluoro-5-(trifluoromethyl)phenyl)-3-methylbenzo[e]imidazo[5,1-c][1,2,4]triazine] came in with a melting point of 176 to 179 °C. At PDE10A (setting [1]), the half-maximal inhibitory concentration (IC50) was > 1000 nM. In addition, the IC50 at PDE2A is 912 nM.

In turn, `CCCCOc1ccc(F)c(-c2nc(C)c3nnc4ccc(F)cc4n23)c1` [Example 22, 1-(5-butoxy-2-fluorophenyl)-8-fluoro-3-methylbenzo[e]imidazo[5,1-c][1,2,4]triazine] returned a melting point of 148 to 151 °C. For the same compound, the IC50 at PDE10A (setting [1]) is > 500 nM. Besides, at PDE2A, the 50% inhibitory concentration (IC50) was 37.7 nM.

As to `CCCOc1ccc(F)c(-c2nc(C)c3nnc4ccc(F)cc4n23)c1` [Example 23, 8-fluoro-1-(2-fluoro-5-propoxyphenyl)-3-methylbenzo[e]imidazo[5,1-c][1,2,4]triazine], the melting point lay within 153 to 155 °C. In addition, the IC50 on PDE10A (setting [1]) turned out to be 1540 nM. In addition, the IC50 on PDE2A is 59.1 nM.

`CCOc1ccc(F)c(-c2nc(C)c3nnc4ccc(F)cc4n23)c1` [Example 24, 1-(5-ethoxy-2-fluorophenyl)-8-fluoro-3-methylbenzo[e]imidazo[5,1-c][1,2,4]triazine]: the melting point fell in the range of 189 to 191 °C. In addition, the IC50 at PDE10A (setting [1]) is > 500 nM. In addition, on PDE2A, the half-maximal inhibitory concentration (IC50) was found to be 240 nM.

The compound `Cc1ncccc1-c1nc(C)c2nnc3cc(F)ccc3n12` [Example 25, 7-fluoro-3-methyl-1-(2-methylpyridin-3-yl)benzo[e]imidazo[5,1-c][1,2,4]triazine] yielded a melting point of 169 to 172 °C. At PDE10A (setting [1]), the IC50 was 1490 nM. The IC50 at PDE2A amounted to 341 nM.

As to `COc1ccccc1-c1nc(C)c2nnc3cc(F)ccc3n12` [Example 26, 7-fluoro-1-(2-methoxyphenyl)-3-methylbenzo[e]imidazo[5,1-c][1,2,4]triazine], the melting point lay in the range of 249 to 251 °C. Also, the IC50 on PDE10A (setting [1]) is 635 nM. In addition, the IC50 at PDE2A was found to be 500 nM.

Consider `Cc1cc(F)ccc1-c1nc(C)c2nnc3cc(F)ccc3n12` [Example 27, 7-fluoro-1-(4-fluoro-2-methylphenyl)-3-methylbenzo[e]imidazo[5,1-c][1,2,4]triazine], for which the melting point lay in the range of 181 to 184 °C. Also, the half-maximal inhibitory concentration (IC50) on PDE10A (setting [1]) is 911 nM. Moreover, at PDE2A, the IC50 came to 298 nM.

Take `Cc1ccccc1-c1nc(C)c2nnc3cc(F)ccc3n12` [Example 28, 7-fluoro-3-methyl-1-o-tolylbenzo[e]imidazo[5,1-c][1,2,4]triazine]: the melting point was in the range of 149 to 152 °C. Besides, at PDE10A (setting [1]), the IC50 turned out to be 359 nM. For the same compound, the IC50 at PDE2A amounted to 122 nM.

Consider `COc1ccc(Cl)c(-c2nc(C)c3nnc4cc(F)ccc4n23)c1` [Example 29, 1-(2-chloro-5-methoxyphenyl)-7-fluoro-3-methylbenzo[e]imidazo[5,1-c][1,2,4]triazine], for which the melting point fell in the range of 158 to 161.5 °C. Also, the half-maximal inhibitory concentration (IC50) on PDE10A (setting [1]) amounted to 425 nM. For the same compound, the half-maximal inhibitory concentration (IC50) at PDE2A is 35.3 nM.

The compound `Cc1nc(-c2cc(C(F)(F)F)ccc2F)n2c1nnc1cc(F)ccc12` [Example 30, 7-fluoro-1-(2-fluoro-5-(trifluoromethyl)phenyl)-3-methylbenzo[e]imidazo[5,1-c][1,2,4]triazine] had a melting point of 205 to 206 °C. Besides, the IC50 at PDE10A (setting [1]) was > 1000 nM. Also, the IC50 on PDE2A worked out at 1790 nM.

With `Cc1nc(-c2cc(OC(C)C)ccc2F)n2c1nnc1cc(F)ccc12` [Example 31, 7-fluoro-1-(2-fluoro-5-isopropoxyphenyl)-3-methylbenzo[e]imidazo[5,1-c][1,2,4]triazine], the melting point was 133 to 136 °C. For the same compound, the half-inhibitory concentration (IC50) on PDE10A (setting [1]) was determined as 5340 nM. In addition, at PDE2A, the half-inhibitory concentration (IC50) was 551 nM.

Consider `COc1ccc2c(c1)nnc1c(C)nc(-c3ccccc3Cl)n12` [Example 34, 1-(2-chlorophenyl)-7-methoxy-3-methylbenzo[e]imidazo[5,1-c][1,2,4]triazine], for which the melting point lay in the range of 163 to 165 °C. Besides, the IC50 at PDE10A (setting [1]) was 75.2 nM. Moreover, the concentration for half-maximal inhibition (IC50) on PDE2A was found to be 26.7 nM.

The compound `COc1ccc2c(c1)nnc1c(C)ncn12` [Example 35, 7-methoxy-3-methylbenzo[e]imidazo[5,1-c][1,2,4]triazine] yielded a melting point of 212 to 215 °C. At PDE10A (setting [1]), the IC50 was > 5000 nM. Also, on PDE2A, the IC50 is > 5000 nM.

In turn, `COc1ccc2c(c1)nnc1c(C)nc(-c3cccnc3C)n12` [Example 36, 7-methoxy-3-methyl-1(2-methylpyridin-3-yl)benzo[e]imidazo[5,1-c][1,2,4]triazine] yielded a melting point of 202 to 205 °C. In addition, the IC50 at PDE10A (setting [1]) amounted to 351 nM. The IC50 at PDE2A is 73.4 nM.

In the case of `Cc1nc(-c2cc(Cl)ccc2Cl)n2c1nnc1ccc(Cl)cc12` [Example 37, 8-chloro-1-(2,5-dichlorophenyl)-3-methylbenzo[e]imidazo[5,1-c][1,2,4]triazine], the melting point fell in the range of 188 to 190 °C. Besides, the IC50 on PDE10A (setting [1]) is 77.2 nM. Further, the IC50 at PDE2A was 5.31 nM.

In turn, `Cc1ncccc1-c1nc(C)c2nnc3ccc(Cl)cc3n12` [Example 38, 8-chloro-3-methyl-1-(2-methylpyridin-3-yl)benzo[e]imidazo[5,1-c][1,2,4]triazine] gave a melting point of 235 to 236 °C. In addition, the half-maximal inhibitory concentration (IC50) on PDE10A (setting [1]) came out at 207 nM. Moreover, the IC50 on PDE2A came out at 41.4 nM.

The compound `Cc1nc(-c2ccnn2C)n2c1nnc1ccc(Cl)cc12` [Example 40, 8-chloro-3-methyl-1-(1-methyl-1H-pyrazol-5-yl)benzo[e]imidazo[5,1-c][1,2,4]triazine] displayed a melting point of 230 to 231 °C. Further, the IC50 at PDE10A (setting [1]) is 3940 nM. Further, on PDE2A, the IC50 was determined as 1410 nM.

`Cc1nc(-c2ccccc2C(N)=O)n2c1nnc1ccc(Cl)cc12` [Example 41, 2-(8-chloro-3-methylbenzo[e]imidazo[5,1-c][1,2,4]triazin-1-yl)benzamide] yielded a melting point of 249 to 251 °C. The IC50 at PDE10A (setting [1]) is 3120 nM. Besides, the half-inhibitory concentration (IC50) on PDE2A was > 1000 nM.

The values above are taken from patent publication US20100120763A1, “IMIDAZO[5,1-C][1,2,4]BENZOTRIAZINE DERIVATIVES AS INHIBITORS OF PHOSPHODIESTERASES” (priority 2008, published 2010).
